Three molecules from ChEMBL document CHEMBL1201862, “PubChem BioAssay data set” (2004) can be followed below.

Calls of active or inactive are those of the source.

Usually IC50 stands for the concentration that gives 50% inhibition. For orientation: AC50 means the midpoint of the concentration-response curve, whichever way the signal moves. As a reminder, the EC50 is the concentration that produces a half-maximal response.

The target of assay [1] is Induced myeloid leukemia cell differentiation protein Mcl-1 (Homo sapiens, UniProt Q07820). Format: functional.
The target of assay [2] is T1, Histone-lysine N-methyltransferase NSD2 (Homo sapiens, UniProt O96028).
T1 sequence (O96028 whole entry): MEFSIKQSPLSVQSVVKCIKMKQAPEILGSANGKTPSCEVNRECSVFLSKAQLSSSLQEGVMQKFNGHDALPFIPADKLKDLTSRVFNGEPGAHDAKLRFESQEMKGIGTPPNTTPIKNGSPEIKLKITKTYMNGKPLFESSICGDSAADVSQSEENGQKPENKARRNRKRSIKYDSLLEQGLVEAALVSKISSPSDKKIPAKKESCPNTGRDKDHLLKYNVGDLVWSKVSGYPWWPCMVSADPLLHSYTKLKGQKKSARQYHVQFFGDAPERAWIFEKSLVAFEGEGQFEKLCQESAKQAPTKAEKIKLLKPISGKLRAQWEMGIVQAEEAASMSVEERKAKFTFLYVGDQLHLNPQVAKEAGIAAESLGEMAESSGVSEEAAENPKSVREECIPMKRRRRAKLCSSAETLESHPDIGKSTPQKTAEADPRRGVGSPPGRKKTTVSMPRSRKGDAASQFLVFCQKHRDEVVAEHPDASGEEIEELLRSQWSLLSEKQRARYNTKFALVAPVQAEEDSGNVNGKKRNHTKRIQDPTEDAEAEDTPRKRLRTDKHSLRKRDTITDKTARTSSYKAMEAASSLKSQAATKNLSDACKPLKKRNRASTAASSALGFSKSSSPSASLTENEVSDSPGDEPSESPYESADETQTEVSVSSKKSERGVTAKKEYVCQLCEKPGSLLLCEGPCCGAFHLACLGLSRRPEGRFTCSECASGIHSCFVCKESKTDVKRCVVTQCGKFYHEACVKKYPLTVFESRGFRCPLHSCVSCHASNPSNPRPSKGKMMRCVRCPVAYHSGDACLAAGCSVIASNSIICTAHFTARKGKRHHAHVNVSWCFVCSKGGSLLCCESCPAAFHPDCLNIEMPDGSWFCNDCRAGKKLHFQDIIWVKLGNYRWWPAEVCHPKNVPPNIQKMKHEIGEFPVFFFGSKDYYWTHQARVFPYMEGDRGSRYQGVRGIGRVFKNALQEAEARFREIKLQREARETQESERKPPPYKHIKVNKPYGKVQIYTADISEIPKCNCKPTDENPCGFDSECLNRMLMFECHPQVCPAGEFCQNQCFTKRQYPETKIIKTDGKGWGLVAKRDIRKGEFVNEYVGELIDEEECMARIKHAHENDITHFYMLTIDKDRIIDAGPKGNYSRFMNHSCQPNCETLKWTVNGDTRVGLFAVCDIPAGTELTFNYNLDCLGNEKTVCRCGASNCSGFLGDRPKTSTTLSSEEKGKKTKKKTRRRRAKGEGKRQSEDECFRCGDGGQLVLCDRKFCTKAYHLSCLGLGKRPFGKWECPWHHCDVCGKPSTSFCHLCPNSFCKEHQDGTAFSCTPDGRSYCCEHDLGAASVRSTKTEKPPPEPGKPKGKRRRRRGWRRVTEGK
The format is biochemical.

The target in assay [3] is T2, 1-phosphatidylinositol 4,5-bisphosphate phosphodiesterase beta-3 (Homo sapiens, UniProt Q01970).
T2 sequence (Q01970 whole entry): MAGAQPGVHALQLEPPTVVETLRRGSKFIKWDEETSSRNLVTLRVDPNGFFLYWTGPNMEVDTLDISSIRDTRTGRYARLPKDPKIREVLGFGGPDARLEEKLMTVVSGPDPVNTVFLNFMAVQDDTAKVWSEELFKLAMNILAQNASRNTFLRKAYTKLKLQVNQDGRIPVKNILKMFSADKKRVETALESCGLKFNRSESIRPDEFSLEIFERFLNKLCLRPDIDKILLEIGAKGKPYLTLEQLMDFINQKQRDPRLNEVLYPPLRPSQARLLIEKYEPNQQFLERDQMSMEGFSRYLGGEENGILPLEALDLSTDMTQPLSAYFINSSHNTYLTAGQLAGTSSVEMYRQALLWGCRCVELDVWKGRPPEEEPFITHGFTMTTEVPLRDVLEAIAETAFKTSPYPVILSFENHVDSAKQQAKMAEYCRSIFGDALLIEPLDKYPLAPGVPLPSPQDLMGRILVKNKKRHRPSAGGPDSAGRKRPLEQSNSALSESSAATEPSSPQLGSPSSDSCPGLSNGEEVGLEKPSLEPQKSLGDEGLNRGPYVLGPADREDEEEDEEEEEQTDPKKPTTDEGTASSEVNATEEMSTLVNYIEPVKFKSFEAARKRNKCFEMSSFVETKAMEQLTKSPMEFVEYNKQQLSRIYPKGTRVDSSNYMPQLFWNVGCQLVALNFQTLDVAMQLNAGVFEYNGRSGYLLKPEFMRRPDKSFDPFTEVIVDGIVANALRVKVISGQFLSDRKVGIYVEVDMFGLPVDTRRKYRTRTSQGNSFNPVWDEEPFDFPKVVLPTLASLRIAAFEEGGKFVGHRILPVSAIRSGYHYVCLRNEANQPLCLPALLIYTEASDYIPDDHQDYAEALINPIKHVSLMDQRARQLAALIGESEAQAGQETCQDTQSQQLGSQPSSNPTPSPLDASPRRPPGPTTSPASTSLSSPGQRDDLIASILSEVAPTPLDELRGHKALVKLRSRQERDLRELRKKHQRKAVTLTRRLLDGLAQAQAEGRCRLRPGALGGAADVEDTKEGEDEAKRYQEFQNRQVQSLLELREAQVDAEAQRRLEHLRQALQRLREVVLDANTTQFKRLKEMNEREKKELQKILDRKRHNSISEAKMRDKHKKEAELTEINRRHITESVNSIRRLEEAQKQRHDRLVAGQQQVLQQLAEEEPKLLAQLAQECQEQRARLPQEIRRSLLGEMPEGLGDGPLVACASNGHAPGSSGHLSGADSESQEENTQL
As to the kind of experiment: Fluorescence-based biochemical high throughput dose response assay to identify inhibitors of phospholipase C isozymes (PLC-B3).

Assay [4] concerns the target Beta-galactosidase (Escherichia coli, UniProt Q8VNN2). The format is functional.
Assay [5] addresses G-protein coupled receptor 55 (Homo sapiens, UniProt Q9Y2T6). As to the kind of experiment: GPR55 antagonists blocking LPI-driven arrestin recruitment, primary screen, imaging, U2OS, beta-arrestin-GFP, LPI agonist (AID 2013).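 Further: antagonist potency measured as reduced agonist-driven arrestin aggregation.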 The format is functional. For orientation: Arrestin recruitment assays detect the binding of arrestin to an activated receptor.

Sequence of G-protein coupled receptor 55 (Q9Y2T6 whole entry): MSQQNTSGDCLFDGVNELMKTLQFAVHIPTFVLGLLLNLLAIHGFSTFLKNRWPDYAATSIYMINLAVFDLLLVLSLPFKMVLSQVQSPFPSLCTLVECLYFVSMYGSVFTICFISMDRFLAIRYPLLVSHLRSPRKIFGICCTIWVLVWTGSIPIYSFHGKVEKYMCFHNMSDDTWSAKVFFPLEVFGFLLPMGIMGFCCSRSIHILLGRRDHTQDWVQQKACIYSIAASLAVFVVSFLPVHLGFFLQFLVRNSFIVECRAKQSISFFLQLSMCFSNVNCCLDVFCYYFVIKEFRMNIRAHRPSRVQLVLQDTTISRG
Sequence of Beta-galactosidase (Q8VNN2 whole entry): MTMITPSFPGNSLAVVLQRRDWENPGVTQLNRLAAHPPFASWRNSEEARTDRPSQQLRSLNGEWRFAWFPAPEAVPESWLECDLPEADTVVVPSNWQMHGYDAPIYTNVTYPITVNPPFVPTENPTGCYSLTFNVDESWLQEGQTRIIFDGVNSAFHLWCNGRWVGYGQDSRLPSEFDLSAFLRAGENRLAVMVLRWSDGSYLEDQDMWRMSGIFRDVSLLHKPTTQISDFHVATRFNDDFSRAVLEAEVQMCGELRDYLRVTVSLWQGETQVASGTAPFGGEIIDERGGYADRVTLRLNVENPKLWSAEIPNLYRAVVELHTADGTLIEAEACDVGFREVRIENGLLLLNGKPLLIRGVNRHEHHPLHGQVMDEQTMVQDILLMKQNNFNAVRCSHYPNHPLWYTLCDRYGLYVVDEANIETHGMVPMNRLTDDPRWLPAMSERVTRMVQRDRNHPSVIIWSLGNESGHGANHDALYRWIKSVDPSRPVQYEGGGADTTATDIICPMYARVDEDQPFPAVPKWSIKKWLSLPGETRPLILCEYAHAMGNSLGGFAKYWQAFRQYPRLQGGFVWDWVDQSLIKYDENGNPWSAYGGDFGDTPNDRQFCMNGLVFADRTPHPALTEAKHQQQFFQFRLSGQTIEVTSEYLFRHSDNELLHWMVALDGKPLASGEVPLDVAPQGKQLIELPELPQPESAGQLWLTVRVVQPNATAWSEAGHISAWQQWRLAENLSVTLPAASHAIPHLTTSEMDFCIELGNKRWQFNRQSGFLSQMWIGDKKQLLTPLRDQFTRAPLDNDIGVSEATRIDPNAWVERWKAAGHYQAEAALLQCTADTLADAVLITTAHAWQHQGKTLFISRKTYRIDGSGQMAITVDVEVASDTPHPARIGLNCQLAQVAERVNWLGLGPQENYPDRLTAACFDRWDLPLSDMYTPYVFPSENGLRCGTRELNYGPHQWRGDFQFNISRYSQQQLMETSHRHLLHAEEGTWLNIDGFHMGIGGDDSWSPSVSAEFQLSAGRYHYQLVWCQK
Sequence of Induced myeloid leukemia cell differentiation protein Mcl-1 (Q07820 whole entry): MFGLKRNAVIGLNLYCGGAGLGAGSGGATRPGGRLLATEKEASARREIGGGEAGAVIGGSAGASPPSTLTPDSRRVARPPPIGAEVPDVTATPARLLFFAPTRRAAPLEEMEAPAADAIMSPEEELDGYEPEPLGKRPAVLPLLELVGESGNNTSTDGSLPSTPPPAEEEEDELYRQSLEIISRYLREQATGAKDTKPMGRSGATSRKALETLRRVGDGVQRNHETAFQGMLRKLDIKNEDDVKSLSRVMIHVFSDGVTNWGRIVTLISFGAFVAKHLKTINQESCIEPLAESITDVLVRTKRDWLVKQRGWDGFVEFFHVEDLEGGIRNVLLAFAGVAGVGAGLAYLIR

For `O=C(O)c1cccc(-n2cccc2/C=C2/NC(=O)N(c3ccc(Cl)cc3)C2=O)c1`, the IC50 was 2.69 µM (active) in assay [1] and > 122 µM (inactive) in assay [3]. Moreover, the AC50 in assay [2] was 0.72 µM (active).
Consider `C=C1C(=O)O[C@@H]2C[C@@H](C)[C@@H]3C=CC(=O)[C@@]3(C)[C@@H](OC(=O)CC(=O)O[C@H]3[C@@H]4C(=C)C(=O)O[C@@H]4C[C@@H](C)[C@@H]4C=CC(=O)[C@]43C)[C@H]12`, for which, in assay [4], the EC50 is > 31.5 µM (inactive). For the same molecule, the IC50 in assay [5] was 1.85 µM (active).
With `O=S(=O)(O)c1cc(Cl)cc(N=Nc2ccc(O)cc2O)c1O`, the AC50 in assay [2] is 7.27 µM (active). Also, the IC50 in assay [3] is > 122 µM (inactive).
